# Experimental data as given in patent US20090118332A1, “Therapeutic Agents - 551” (AstraZeneca AB, priority 2006, published 2009).
# Target: T1, human Fatty Acid Synthase (Homo sapiens, UniProt P49327)
# T1 construct: made in house
# Test: Human FAS enzyme assay (decrease in NADPH fluorescence)
# Format: biochemical
# Settings: % inhibition at a concentration of 100 μmolar
# How it was run: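 In-house human FAS was preincubated with compound and NADPH for 15 min at room temperature in 0.1 M Tris pH 7.5 with EDTA, glutathione and BSA. Malonyl CoA and acetyl CoA (500 μM and 150 μM in the added mix) were then added for 60 min. IC50 came from time-zero-subtracted NADPH fluorescence (340/460 nm).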
# T1 sequence (P49327 whole entry): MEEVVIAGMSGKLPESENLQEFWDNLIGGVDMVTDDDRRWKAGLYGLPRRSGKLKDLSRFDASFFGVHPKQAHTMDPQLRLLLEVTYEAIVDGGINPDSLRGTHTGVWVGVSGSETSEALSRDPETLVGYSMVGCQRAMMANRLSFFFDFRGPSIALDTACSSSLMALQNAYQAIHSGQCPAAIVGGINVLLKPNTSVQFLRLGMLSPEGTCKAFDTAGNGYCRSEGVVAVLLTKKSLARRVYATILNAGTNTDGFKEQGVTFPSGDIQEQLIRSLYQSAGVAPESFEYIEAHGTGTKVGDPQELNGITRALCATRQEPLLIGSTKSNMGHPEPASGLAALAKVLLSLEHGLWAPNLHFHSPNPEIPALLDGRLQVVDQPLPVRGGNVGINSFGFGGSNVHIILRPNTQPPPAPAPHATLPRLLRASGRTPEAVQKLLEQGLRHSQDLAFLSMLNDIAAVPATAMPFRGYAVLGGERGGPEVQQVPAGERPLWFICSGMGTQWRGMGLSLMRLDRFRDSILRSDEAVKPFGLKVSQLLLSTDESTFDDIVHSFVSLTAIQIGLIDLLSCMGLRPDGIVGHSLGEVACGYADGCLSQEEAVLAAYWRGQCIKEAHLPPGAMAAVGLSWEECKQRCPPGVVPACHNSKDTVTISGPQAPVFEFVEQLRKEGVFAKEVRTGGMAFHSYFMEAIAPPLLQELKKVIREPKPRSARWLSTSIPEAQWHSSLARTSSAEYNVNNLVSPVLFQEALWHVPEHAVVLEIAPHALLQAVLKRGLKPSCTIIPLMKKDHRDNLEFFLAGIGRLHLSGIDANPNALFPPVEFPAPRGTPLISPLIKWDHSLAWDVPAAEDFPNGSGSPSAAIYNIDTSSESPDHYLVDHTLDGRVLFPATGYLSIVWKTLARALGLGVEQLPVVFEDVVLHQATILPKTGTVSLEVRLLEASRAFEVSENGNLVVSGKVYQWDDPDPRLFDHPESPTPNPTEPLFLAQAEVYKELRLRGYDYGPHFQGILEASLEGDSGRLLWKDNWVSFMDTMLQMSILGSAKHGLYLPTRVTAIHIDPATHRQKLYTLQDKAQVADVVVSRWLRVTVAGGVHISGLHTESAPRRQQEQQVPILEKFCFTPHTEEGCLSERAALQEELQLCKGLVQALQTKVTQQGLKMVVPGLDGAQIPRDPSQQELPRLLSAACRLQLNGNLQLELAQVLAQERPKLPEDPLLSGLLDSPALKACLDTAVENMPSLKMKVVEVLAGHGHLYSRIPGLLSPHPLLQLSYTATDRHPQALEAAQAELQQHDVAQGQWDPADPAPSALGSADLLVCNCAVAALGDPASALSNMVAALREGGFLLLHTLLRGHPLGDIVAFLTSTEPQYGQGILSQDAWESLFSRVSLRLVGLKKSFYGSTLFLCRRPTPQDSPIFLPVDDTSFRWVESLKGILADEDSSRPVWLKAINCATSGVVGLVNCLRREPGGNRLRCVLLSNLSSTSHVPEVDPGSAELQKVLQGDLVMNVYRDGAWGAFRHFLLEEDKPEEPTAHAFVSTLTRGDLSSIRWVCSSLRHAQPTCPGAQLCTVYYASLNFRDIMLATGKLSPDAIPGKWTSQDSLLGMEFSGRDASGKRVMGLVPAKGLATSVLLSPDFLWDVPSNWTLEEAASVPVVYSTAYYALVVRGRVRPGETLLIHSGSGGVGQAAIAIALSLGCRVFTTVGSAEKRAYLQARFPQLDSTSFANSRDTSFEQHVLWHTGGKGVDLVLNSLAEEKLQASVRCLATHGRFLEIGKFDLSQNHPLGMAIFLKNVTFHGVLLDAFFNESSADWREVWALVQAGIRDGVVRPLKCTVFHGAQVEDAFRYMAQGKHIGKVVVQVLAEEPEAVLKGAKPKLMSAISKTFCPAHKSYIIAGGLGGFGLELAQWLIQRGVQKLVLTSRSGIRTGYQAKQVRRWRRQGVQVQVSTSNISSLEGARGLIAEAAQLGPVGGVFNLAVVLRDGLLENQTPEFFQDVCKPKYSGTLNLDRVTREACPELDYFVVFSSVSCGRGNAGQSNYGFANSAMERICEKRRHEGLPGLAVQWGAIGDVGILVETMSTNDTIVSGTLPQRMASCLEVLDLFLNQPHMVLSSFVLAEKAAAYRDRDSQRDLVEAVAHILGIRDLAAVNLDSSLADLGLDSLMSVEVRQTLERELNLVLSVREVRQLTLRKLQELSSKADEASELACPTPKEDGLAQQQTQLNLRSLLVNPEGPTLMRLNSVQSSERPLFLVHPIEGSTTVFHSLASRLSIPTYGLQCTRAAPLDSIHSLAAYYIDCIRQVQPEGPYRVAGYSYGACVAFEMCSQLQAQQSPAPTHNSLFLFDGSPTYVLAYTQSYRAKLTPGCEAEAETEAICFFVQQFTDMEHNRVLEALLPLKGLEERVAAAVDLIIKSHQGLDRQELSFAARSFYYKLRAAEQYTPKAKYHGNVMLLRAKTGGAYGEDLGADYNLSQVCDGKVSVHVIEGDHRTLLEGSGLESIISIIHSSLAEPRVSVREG
row,inhibition at 100 µM [%],SMILES
1,78.6,"Cc1ccc(C(=O)N2CCC(c3ccc(C#N)cc3)CC2)cc1NC(=O)NC1(C)CC1 [Example 389, 1-[5-[4-(4-cyanophenyl)piperidine-1-carbonyl]-2-methylphenyl]-3-(1-methylcyclopropyl)-urea]"
2,90.6,"CC(=O)N1CCCC(NC(=O)Nc2cc(C(=O)N3CCC(c4ccc(C#N)cc4)CC3)ccc2C)C1 (centres unmarked) [Example 390, 3-(1-acetylpiperidin-3-yl)-1-[5-[4-(4-cyanophenyl)piperidine-1-carbonyl]-2-methylphenyl]urea]"
3,71,"Cc1ccc(C(=O)N2CCC(c3ccccc3)CC2)cc1NC(=O)NC(C)C [Example 391, 1-[2-methyl-5-(4-phenylpiperidine-1-carbonyl)phenyl]-3-propan-2-ylurea]"
4,76.3,"Cc1ccc(C(=O)N2CCC(c3ccc(C#N)cc3)CC2)cc1NC(=O)N(C)CCO [Example 392, 3-[5-[4-(4-cyanophenyl)piperidine-1-carbonyl]-2-methylphenyl]-1-(2-hydroxyethyl)-1-methylurea]"
5,65.8,"Cc1ccc(C(=O)N2CCC(c3ccc(C#N)cc3)CC2)cc1NC(=O)N(C)C1CCN(C)CC1 [Example 393, 3-[5-[4-(4-cyanophenyl)piperidine-1-carbonyl]-2-methylphenyl]-1-methyl-1-(1-methylpiperidin-4-yl)urea]"
6,68.7,"Cc1ccc(C(=O)N2CCC(c3ccc(C#N)cc3)CC2)cc1NC(=O)N(C)CCN(C)C [Example 394, 3-[5-[4-(4-cyanophenyl)piperidine-1-carbonyl]-2-methylphenyl]-1-(2-dimethylaminoethyl)-1-methylurea]"
7,71.6,"Cc1ccc(C(=O)N2CCC(c3ccc(C#N)cc3)CC2)cc1NC(=O)N(CCO)C(C)C [Example 395, 3-[5-[4-(4-cyanophenyl)piperidine-1-carbonyl]-2-methylphenyl]-1-(2-hydroxyethyl)-1-propan-2-ylurea]"
8,62.9,"Cc1ccc(C(=O)N2CCC(c3ccc(C#N)cc3)CC2)cc1NC(=O)N(C)C1CCOCC1 [Example 396, 3-[5-[4-(4-cyanophenyl)piperidine-1-carbonyl]-2-methylphenyl]-1-methyl-1-(oxan-4-yl)urea]"
9,63.7,"CCCN(C(=O)Nc1cc(C(=O)N2CCC(c3ccc(C#N)cc3)CC2)ccc1C)C1CCS(=O)(=O)C1 (centres unmarked) [Example 397, 3-[5-[4-(4-cyanophenyl)piperidine-1-carbonyl]-2-methylphenyl]-1-(1,1-dioxothiolan-3-yl)-1-propylurea]"
10,66.3,"Cc1ccc(C(=O)N2CCC(c3ccc(C#N)cc3)CC2)cc1NC(=O)N(C)CC(=O)NC(C)C [Example 398, 2-[[5-[4-(4-cyanophenyl)piperidine-1-carbonyl]-2-methylphenyl]carbamoyl-methylamino]-N-propan-2-ylacetamide]"
11,73.3,"CCOCC1CCCN1C(=O)Nc1cc(C(=O)N2CCC(c3ccc(C#N)cc3)CC2)ccc1C (centres unmarked) [Example 399, N-[5-[4-(4-cyanophenyl)piperidine-1-carbonyl]-2-methylphenyl]-2-(ethoxymethyl)pyrrolidine-1-carboxamide]"
12,66.7,"CNCCNC(=O)Nc1cc(C(=O)N2CCC(c3ccc(F)cc3)CC2)ccc1C [Example 400, 1-[5-[4-(4-fluorophenyl)piperidine-1-carbonyl]-2-methylphenyl]-3-(2-methylaminoethyl)urea]"

# Second part, the compound before the results:
row,SMILES,inhibition at 100 µM [%]
1,"CSc1ccc(C(=O)N2CCC(c3ccc(C#N)cc3)CC2)cc1NC(=O)NC(C)C [Example 362, 3-[5-[4-(4-cyanophenyl)piperidine-1-carbonyl]-2-methylsulfanylphenyl]-1-propan-2-ylurea]",87.9
2,"CSc1ccc(C(=O)N2CCC(c3ccc(C#N)cc3)CC2)cc1NC(=O)NCc1ccccc1 [Example 363, 3-benzyl-1-[5-[4-(4-cyanophenyl)piperidine-1-carbonyl]-2-methylsulfanylphenyl]urea]",84.7
3,"CC(C)NC(=O)Nc1cc(C(=O)N2CCC(c3ccc(C#N)cc3)CC2)ccc1S(C)(=O)=O [Example 364, 3-[5-[4-(4-cyanophenyl)piperidine-1-carbonyl]-2-methylsulfonylphenyl]-1-propan-2-ylurea]",84.1
4,"COCc1ccc(C(=O)N2CCC(c3ccc(C#N)cc3)CC2)cc1NC(=O)NC(C)C [Example 365, 3-[5-[4-(4-cyanophenyl)piperidine-1-carbonyl]-2-(methoxymethyl)phenyl]-1-propan-2-ylurea]",82.5
5,"Cc1ccc(C(=O)N2CCC(c3ccc(C#N)cc3)CC2)cc1NC(N)=O [Example 366, [5-[4-(4-cyanophenyl)piperidine-1-carbonyl]-2-methylphenyl]urea]",101
6,"Cc1ccc(C(=O)N2CCC(c3ccc(C#N)cc3)CC2)cc1NC(=O)NCc1ncc(F)cc1F [Example 367, 1-[5-[4-(4-cyanophenyl)piperidine-1-carbonyl]-2-methylphenyl]-3-[(3,5-difluoropyridin-2-yl)methyl]urea]",107
7,"Cc1ccc(C(=O)N2CCC(c3ccc(C#N)cc3)CC2)cc1NC(=O)NC(C)c1ccccn1 (centres unmarked) [Example 368, 1-[5-[4-(4-cyanophenyl)piperidine-1-carbonyl]-2-methylphenyl]-3-(1-pyridin-2-ylethyl)urea]",110
8,"Cc1ccc(C(=O)N2CCC(c3ccc(C#N)cc3)CC2)cc1NC(=O)NC(Cc1ccc(F)cc1)C(=O)O (centres unmarked) [Example 369, 2-[[5-[4-(4-cyanophenyl)piperidine-1-carbonyl]-2-methylphenyl]carbamoylamino]-3-(4-fluorophenyl)propanoic acid]",88.5
9,"Cc1ccc(C(=O)N2CCC(c3ccc(C#N)cc3)CC2)cc1NC(=O)NC[C@@H](NC(=O)OC(C)(C)C)C(=O)O [Example 370, (2R)-3-[[5-[4-(4-cyanophenyl)piperidine-1-carbonyl]-2-methylphenyl]carbamoylamino]-2-[(2-methylpropan-2-yl)oxycarbonylamino]propanoic acid]",106
10,"Cc1ccc(C(=O)N2CCC(c3ccc(C#N)cc3)CC2)cc1NC(=O)NC(C(=O)O)C(C)C (centres unmarked) [Example 371, 2-[[5-[4-(4-cyanophenyl)piperidine-1-carbonyl]-2-methylphenyl]carbamoylamino]-3-methylbutanoic acid]",79
11,"Cc1ccc(C(=O)N2CCC(c3ccc(S(C)(=O)=O)cc3)CC2)cc1NC(=O)NC(C)C [Example 374, 1-[2-methyl-5-[4-(4-methylsulfonylphenyl)piperidine-1-carbonyl]phenyl]-3-propan-2-ylurea]",71.8
12,"Cc1ccc(NC(=O)NC(C)(C)C)cc1C(=O)N1CCC(c2ccc(C#N)cc2)CC1 [Example 376, 3-tert-butyl-1-[3-[4-(4-cyanophenyl)piperidine-1-carbonyl]-4-methylphenyl]urea]",68.4
13,"CC(C)NC(=O)Nc1ccc(F)c(C(=O)N2CCC(c3ccc(C#N)cc3)CC2)c1 [Example 377, 3-[3-[4-(4-cyanophenyl)piperidine-1-carbonyl]-4-fluorophenyl]-1-propan-2-ylurea]",71.1
14,"Cc1ccc(NC(=O)NCc2ccc(C#N)cc2)cc1C(=O)N1CCC(c2ccc(C#N)cc2)CC1 [Example 378, 3-[(4-cyanophenyl)methyl]-1-[3-[4-(4-cyanophenyl)piperidine-1-carbonyl]-4-methylphenyl]urea]",73.2
15,"Cc1ccc(NC(=O)NCc2ccncc2)cc1C(=O)N1CCC(c2ccc(C#N)cc2)CC1 [Example 379, 1-[3-[4-(4-cyanophenyl)piperidine-1-carbonyl]-4-methylphenyl]-3-(pyridin-4-ylmethyl)urea]",73.3
16,"Cc1ccc(NC(=O)N(C)C)cc1C(=O)N1CCC(c2ccc(C#N)cc2)CC1 [Example 380, 3-[3-[4-(4-cyanophenyl)piperidine-1-carbonyl]-4-methylphenyl]-1,1-dimethylurea]",74.8
17,"Cc1ccc(C(=O)N2CCC(c3ccc(C#N)cc3)CC2)cc1NC(=O)N(C)Cc1ccccc1 [Example 381, 1-benzyl-3-[5-[4-(4-cyanophenyl)piperidine-1-carbonyl]-2-methylphenyl]-1-methylurea]",71.1
18,"Cc1ccc(C(=O)N2CCC(c3ccc(C#N)cc3)CC2)cc1NC(=O)NC1CONC1=O (centres unmarked) [Example 383, 1-[5-[4-(4-cyanophenyl)piperidine-1-carbonyl]-2-methylphenyl]-3-(3-oxo-1,2-oxazolidin-4-yl)urea]",73.6
19,"C#CC(C)(C)NC(=O)Nc1cc(C(=O)N2CCC(c3ccc(C#N)cc3)CC2)ccc1C [Example 384, 1-[5-[4-(4-cyanophenyl)piperidine-1-carbonyl]-2-methylphenyl]-3-(2-methylbut-3-yn-2-yl)urea]",97.6
20,"CCOC(=O)C(C)NC(=O)Nc1cc(C(=O)N2CCC(c3ccc(C#N)cc3)CC2)ccc1C (centres unmarked) [Example 385, Ethyl 2-[[5-[4-(4-cyanophenyl)piperidine-1-carbonyl]-2-methylphenyl]carbamoylamino]-propanoate]",60.8
21,"CC(C)NC(=O)Nc1cc(C(=O)N2CCC(c3ccc(C#N)cc3)CC2)ccc1[S+](C)[O-] (centres unmarked) [Example 386, 3-[5-[4-(4-cyanophenyl)piperidine-1-carbonyl]-2-methylsulfinylphenyl]-1-propan-2-ylurea]",67.4
22,"C[S+]([O-])c1ccc(C(=O)N2CCC(c3ccc(C#N)cc3)CC2)cc1NC(=O)NCc1ccccc1 (centres unmarked) [Example 387, 3-benzyl-1-[5-[4-(4-cyanophenyl)piperidine-1-carbonyl]-2-methylsulfinylphenyl]urea]",72.9
23,"Cc1ccc(C(=O)N2CCC(c3ccc(C#N)cc3)CC2)cc1NC(=O)NC1CCCC1C(=O)O (centres unmarked) [Example 388, 2-[[5-[4-(4-cyanophenyl)piperidine-1-carbonyl]-2-methylphenyl]carbamoylamino]-cyclopentane-1-carboxylic acid]",83.9
